Measured values from the supplement of paper PMC10307832.

Columns and labels:
Assay in all cases: relative viability (nuclei count vs DMSO), 5 days (fraction); higher = more cells survive
A549 = test system: A549
Summary of the method: (§1)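 Medians of duplicate plates are given as relative viability. That measure is the nuclei count in treated wells divided by the count in vehicle wells. Counts were taken on 4× images of lung cancer cell lines in 1536-well plates, 5 days after pin-tool dosing the day after seeding with one drug alone or a fixed anchor-drug dose plus five library-drug doses (not always all listed) in √10 steps.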

NCI-H1993 = test system: NCI-H1993
Summary of the method: as §1

NCI-H1703 = test system: NCI-H1703
Summary of the method: as §1

UMC-11 = test system: UMC-11
Summary of the method: as §1

NCI-H1299 = test system: NCI-H1299
Summary of the method: as §1

NCI-H596 = test system: NCI-H596
Summary of the method: as §1

EBC-1 = test system: EBC-1
Summary of the method: as §1

NCI-H23 = test system: NCI-H23
Summary of the method: as §1

IA-LM = test system: IA-LM
Summary of the method: as §1

NCI-H1355 = test system: NCI-H1355
Summary of the method: as §1

Calu-6 = test system: Calu-6
Summary of the method: as §1

NCI-H322M = test system: NCI-H322M
Summary of the method: as §1

LCLC-97TM1 = test system: LCLC-97TM1
Summary of the method: as §1

`CC(=O)O[C@@]12CO[C@@H]1C[C@H](O)[C@@]1(C)C(=O)[C@H](O)C3=C(C)[C@@H](OC(=O)[C@H](O)[C@@H](NC(=O)OC(C)(C)C)c4ccccc4)C[C@@](O)([C@@H](OC(=O)c4ccccc4)[C@H]21)C3(C)C` [Docetaxel] + C[C@@H](Oc1cc(-c2cnn(C3CCNCC3)c2)cnc1N)c1c(Cl)ccc(F)c1Cl [Crizotinib] (partner 1 µM) was tested. Which relative viability (A549; first compound 0.0002 µM) did it give?
The relative viability was 0.641.

What about the relative viability (A549; first compound 0.000632 µM) of the same compound?
The relative viability was 0.432.

What about the relative viability (A549; first compound 0.002 µM) of the same compound?
Its relative viability is 0.0535.

And the relative viability (A549; first compound 0.006325 µM)?
The relative viability was 0.0545.

What about the relative viability (A549; first compound 0.02 µM) of the same compound?
Its relative viability is 0.0485.

What about the relative viability (NCI-H1993; first compound 0.0002 µM) of the same compound?
Its relative viability is 0.93.

And the relative viability (NCI-H1993; first compound 0.000632 µM)?
Its relative viability is 0.787.

And the relative viability (NCI-H1993; first compound 0.002 µM)?
The relative viability was 0.791.

What about the relative viability (NCI-H1993; first compound 0.006325 µM) of the same compound?
The relative viability was 0.537.

And the relative viability (NCI-H1993; first compound 0.02 µM)?
The relative viability was 0.508.

What about the relative viability (NCI-H1703; first compound 0.0002 µM) of the same compound?
The relative viability was 0.483.

And the relative viability (NCI-H1703; first compound 0.000632 µM)?
The relative viability was 0.379.

And the relative viability (NCI-H1703; first compound 0.002 µM)?
The relative viability was 0.226.

And the relative viability (NCI-H1703; first compound 0.006325 µM)?
Its relative viability is 0.0913.

And the relative viability (NCI-H1703; first compound 0.02 µM)?
The relative viability was 0.133.

What about the relative viability (UMC-11; first compound 0.0002 µM) of the same compound?
The relative viability was 0.612.

And the relative viability (UMC-11; first compound 0.000632 µM)?
The relative viability was 0.485.

And the relative viability (UMC-11; first compound 0.002 µM)?
Its relative viability is 0.122.

And the relative viability (UMC-11; first compound 0.006325 µM)?
The relative viability was 0.108.

What about the relative viability (UMC-11; first compound 0.02 µM) of the same compound?
The relative viability was 0.084.

And the relative viability (NCI-H1299; first compound 0.0002 µM)?
The relative viability was 0.972.

What about the relative viability (NCI-H1299; first compound 0.000632 µM) of the same compound?
The relative viability was 0.984.

What about the relative viability (NCI-H1299; first compound 0.002 µM) of the same compound?
The relative viability was 0.695.

And the relative viability (NCI-H1299; first compound 0.006325 µM)?
The relative viability was 0.392.

What about the relative viability (NCI-H1299; first compound 0.02 µM) of the same compound?
Its relative viability is 0.305.

And the relative viability (NCI-H596; first compound 0.0002 µM)?
The relative viability was 0.986.

What about the relative viability (NCI-H596; first compound 0.000632 µM) of the same compound?
Its relative viability is 0.798.

And the relative viability (NCI-H596; first compound 0.002 µM)?
The relative viability was 1.01.

And the relative viability (NCI-H596; first compound 0.006325 µM)?
The relative viability was 0.475.

What about the relative viability (NCI-H596; first compound 0.02 µM) of the same compound?
Its relative viability is 0.462.

And the relative viability (EBC-1; first compound 0.0002 µM)?
Its relative viability is 0.187.

And the relative viability (EBC-1; first compound 0.000632 µM)?
Its relative viability is 0.146.

And the relative viability (EBC-1; first compound 0.002 µM)?
The relative viability was 0.167.

And the relative viability (EBC-1; first compound 0.006325 µM)?
Its relative viability is 0.163.

And the relative viability (EBC-1; first compound 0.02 µM)?
Its relative viability is 0.151.

And the relative viability (NCI-H23; first compound 0.0002 µM)?
Its relative viability is 0.534.

What about the relative viability (NCI-H23; first compound 0.000632 µM) of the same compound?
The relative viability was 0.412.

And the relative viability (NCI-H23; first compound 0.002 µM)?
Its relative viability is 0.271.

What about the relative viability (NCI-H23; first compound 0.006325 µM) of the same compound?
The relative viability was 0.189.

And the relative viability (NCI-H23; first compound 0.02 µM)?
The relative viability was 0.113.

What about the relative viability (IA-LM; first compound 0.0002 µM) of the same compound?
The relative viability was 0.395.

And the relative viability (IA-LM; first compound 0.000632 µM)?
The relative viability was 0.145.

What about the relative viability (IA-LM; first compound 0.002 µM) of the same compound?
The relative viability was 0.0955.

What about the relative viability (IA-LM; first compound 0.006325 µM) of the same compound?
The relative viability was 0.078.

What about the relative viability (IA-LM; first compound 0.02 µM) of the same compound?
Its relative viability is 0.0873.

And the relative viability (NCI-H1355; first compound 0.0002 µM)?
The relative viability was 1.01.

And the relative viability (NCI-H1355; first compound 0.000632 µM)?
Its relative viability is 0.893.

What about the relative viability (NCI-H1355; first compound 0.002 µM) of the same compound?
The relative viability was 0.456.

And the relative viability (NCI-H1355; first compound 0.006325 µM)?
Its relative viability is 0.241.

And the relative viability (NCI-H1355; first compound 0.02 µM)?
Its relative viability is 0.198.

What about the relative viability (Calu-6; first compound 0.0002 µM) of the same compound?
The relative viability was 0.805.

What about the relative viability (Calu-6; first compound 0.000632 µM) of the same compound?
Its relative viability is 0.394.

And the relative viability (Calu-6; first compound 0.002 µM)?
The relative viability was 0.219.

What about the relative viability (Calu-6; first compound 0.006325 µM) of the same compound?
Its relative viability is 0.159.

And the relative viability (Calu-6; first compound 0.02 µM)?
Its relative viability is 0.105.

And the relative viability (NCI-H322M; first compound 0.0002 µM)?
The relative viability was 0.817.

What about the relative viability (NCI-H322M; first compound 0.000632 µM) of the same compound?
Its relative viability is 0.91.

And the relative viability (NCI-H322M; first compound 0.002 µM)?
Its relative viability is 0.71.

What about the relative viability (NCI-H322M; first compound 0.006325 µM) of the same compound?
Its relative viability is 0.233.

What about the relative viability (NCI-H322M; first compound 0.02 µM) of the same compound?
Its relative viability is 0.405.

And the relative viability (LCLC-97TM1; first compound 0.000632 µM)?
Its relative viability is 0.178.

And the relative viability (LCLC-97TM1; first compound 0.002 µM)?
The relative viability was 0.115.

And the relative viability (LCLC-97TM1; first compound 0.006325 µM)?
The relative viability was 0.139.

And the relative viability (LCLC-97TM1; first compound 0.02 µM)?
Its relative viability is 0.12.

Which results are given for `Nc1ccn([C@@H]2O[C@H](CO)[C@@H](O)[C@@H]2O)c(=O)n1` [Cytarabine] + CS(=O)(=O)N1CCN(Cc2cc3nc(-c4cccc5[nH]ncc45)nc(N4CCOCC4)c3s2)CC1 [Pictilisib] (partner 1 µM)?
relative viability (A549; first compound 0.005 µM): 0.506; relative viability (A549; first compound 0.05 µM): 0.539; relative viability (A549; first compound 0.1581 µM): 0.0667; relative viability (A549; first compound 0.5 µM): 0.039; relative viability (NCI-H1993; first compound 0.005 µM): 0.84; relative viability (NCI-H1993; first compound 0.01581 µM): 0.815; relative viability (NCI-H1993; first compound 0.05 µM): 0.765; relative viability (NCI-H1993; first compound 0.1581 µM): 0.712; relative viability (NCI-H1993; first compound 0.5 µM): 0.525; relative viability (NCI-H1703; first compound 0.005 µM): 0.263; relative viability (NCI-H1703; first compound 0.01581 µM): 0.182; relative viability (NCI-H1703; first compound 0.05 µM): 0.194; relative viability (NCI-H1703; first compound 0.1581 µM): 0.149; relative viability (NCI-H1703; first compound 0.5 µM): 0.158; relative viability (UMC-11; first compound 0.005 µM): 0.488; relative viability (UMC-11; first compound 0.01581 µM): 0.411; relative viability (UMC-11; first compound 0.05 µM): 0.318; relative viability (UMC-11; first compound 0.1581 µM): 0.175; relative viability (UMC-11; first compound 0.5 µM): 0.161; relative viability (NCI-H1299; first compound 0.005 µM): 0.819; relative viability (NCI-H1299; first compound 0.01581 µM): 0.839; relative viability (NCI-H1299; first compound 0.05 µM): 0.959; relative viability (NCI-H1299; first compound 0.1581 µM): 0.656; relative viability (NCI-H1299; first compound 0.5 µM): 0.645; relative viability (NCI-H596; first compound 0.005 µM): 0.432; relative viability (NCI-H596; first compound 0.01581 µM): 0.396; relative viability (NCI-H596; first compound 0.05 µM): 0.355; relative viability (NCI-H596; first compound 0.1581 µM): 0.277; relative viability (NCI-H596; first compound 0.5 µM): 0.315; relative viability (EBC-1; first compound 0.005 µM): 0.37; relative viability (EBC-1; first compound 0.01581 µM): 0.29; relative viability (EBC-1; first compound 0.05 µM): 0.239; relative viability (EBC-1; first compound 0.1581 µM): 0.215; relative viability (EBC-1; first compound 0.5 µM): 0.193; relative viability (NCI-H23; first compound 0.005 µM): 0.527; relative viability (NCI-H23; first compound 0.01581 µM): 0.346; relative viability (NCI-H23; first compound 0.05 µM): 0.327; relative viability (NCI-H23; first compound 0.1581 µM): 0.156; relative viability (NCI-H23; first compound 0.5 µM): 0.138; relative viability (IA-LM; first compound 0.005 µM): 0.296; relative viability (IA-LM; first compound 0.01581 µM): 0.336; relative viability (IA-LM; first compound 0.05 µM): 0.338; relative viability (IA-LM; first compound 0.1581 µM): 0.154; relative viability (IA-LM; first compound 0.5 µM): 0.0939; relative viability (NCI-H1355; first compound 0.005 µM): 0.398; relative viability (NCI-H1355; first compound 0.01581 µM): 0.392; relative viability (NCI-H1355; first compound 0.05 µM): 0.205; relative viability (NCI-H1355; first compound 0.1581 µM): 0.302; relative viability (NCI-H1355; first compound 0.5 µM): 0.196; relative viability (Calu-6; first compound 0.005 µM): 0.741; relative viability (Calu-6; first compound 0.01581 µM): 0.618; relative viability (Calu-6; first compound 0.05 µM): 0.775; relative viability (Calu-6; first compound 0.1581 µM): 0.371; relative viability (Calu-6; first compound 0.5 µM): 0.203; relative viability (NCI-H322M; first compound 0.005 µM): 0.443; relative viability (NCI-H322M; first compound 0.01581 µM): 0.492; relative viability (NCI-H322M; first compound 0.05 µM): 0.368; relative viability (NCI-H322M; first compound 0.1581 µM): 0.279; relative viability (NCI-H322M; first compound 0.5 µM): 0.308; relative viability (LCLC-97TM1; first compound 0.005 µM): 0.207; relative viability (LCLC-97TM1; first compound 0.01581 µM): 0.177; relative viability (LCLC-97TM1; first compound 0.05 µM): 0.0754; relative viability (LCLC-97TM1; first compound 0.1581 µM): 0.124; relative viability (LCLC-97TM1; first compound 0.5 µM): 0.108
